Patent US8362236B2, “Macrocyclic compound” (Chugai Seiyaku Kabushiki Kaisha, priority 2007, dated 2013)
Values joined by “and” are separate entries in the source; they are usually repeats but may differ in a detail not shown here. Equal values may be shown once. Read-outs that look alike come from different tables or passages of the source.

Tests used:
HCT116 cells = assay: Measurement of cell growth inhibition (Cell Counting Kit-8, four days); conditions: Homo sapiens, HCT-116, 96 h, read-out: Cell growth-inhibiting activity (IC50, μM) Colon cancer HCT116, HCT116 colon cancer cell line, four days culture;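 further: cells exposed to a range of test concentrations at 37 °C in 5% CO2 for four days, then growth read as absorbance with Cell Counting Kit-8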
Procedure: Cells were maintained under conditions recommended by the provider of each cell line. Cells suspended in a medium were added to solutions containing various concentrations of the test substance, and the cells were cultured at 37° C. in a 5% CO2 incubator. Four days later, Cell Counting Kit-8 was added, and absorbance measurements were taken following the protocol included in the kit.

Human HSP90 alpha = molecular target: T1, Human HSP90 alpha (Homo sapiens, UniProt P07900); assay: Assay for the activity of inhibiting HSP90 enzyme (ATPase, malachite green); type: biochemical; conditions: purified human HSP90 alpha, 1 mM ATP added, 37° C. for two hours, OD655
T1 construct: His tag (inferred from purification on a HisPrep FF column); made in house; host or cells: E. coli BL21 codon plus (Stratagene)
Procedure: Introduction of pETHuHSP90a into E. coli (BL21 codon plus; Stratagene) was followed by O/N incubation in the presence of 0.1 mM IPTG, and the collected E. coli cells were disrupted by ultrasonication in a Lysis buffer (50 mM Tris-HCl (pH8.0), 10 mM MgCl2, 0.1% Triton X-100, Protease inhibitor cocktail tablets (Roche Diagnostics)). The cell lysate solution was centrifuged (10,000 rpm×30 minutes), and the supernatant obtained after centrifugation was used as a crude extract. The crude extract was fractionated using HisPrep FF column and HiTrap Q column (Amersham) to prepare a purified enzyme solution.
An enzyme solution for assays was prepared by dilution of the purified enzyme solution using an assay buffer (50 mM Tris HCl pH7.6, 20 mM KCl, 5 mM MgCl2).
10 μL each of various concentrations of the test substances (10% DMSO solution) was added to each well, and for the positive control wells, 10 μL of 10% DMSO was added. 10 μL of 10% DMSO was also added to the negative control well.
10 μL of 1 mM ATP was added to all of the wells, and the reaction was carried out at 37° C. for two hours.

[1] = read-out: Enzyme-inhibiting activity (IC50, μM) Human HSP90α

Structure (SMILES)	IC50 (HCT116 cells) [µM]	IC50 (Human HSP90 alpha; [1])	IC50 (Human HSP90 alpha; Enzyme-inhibiting activity (IC50, μM) Human HSP90α)
Cc1cc(C)c2cc1C(=O)NCC1(CNC(=O)CCSc3cc-2nc(N)n3)COC1 [Compound 72]	1	2.2 µM	
Cc1cc(C)c2cc1C(=O)NCCC(NC(=O)C(F)(F)F)C(=O)NCCSc1cc-2nc(N)n1 (stereo not drawn) [Compound 75, N-(4-amino-18,20-dimethyl-11,16-dioxo-7-thia-3,5,10,15-tetraazatricyclo[15.3.1.1^2,6]docosa-1(20),2(22),3,5,17(21),18-hexaen-12-yl)-2,2,2-trifluoroacetamide]	0.5	1.9 µM	
Cc1cc(C)c2cc1C(=O)NCCC(NC(=O)[C@H](N)C(C)C)C(=O)NCCSc1cc-2nc(N)n1 (stereo partly drawn) [Compound 76]	5	4.3 µM and 6.2 µM	
Cc1cc(C)c2cc1C(=O)NCCC(NC(=O)[C@H](N)Cc1ccc(O)cc1)C(=O)NCCSc1cc-2nc(N)n1 (stereo partly drawn) [Compound 77]	6.5		5 µM and 3.4 µM
Cc1cc(C)c2cc1C(=O)NCCC(N(C)C)C(=O)NCCSc1cc-2nc(N)n1 (stereo not drawn) [Compound 78, 4-amino-12-dimethylamino-18,20-dimethyl-7-thia-3,5,10,15-tetraazatricyclo[15.3.1.1^2,6]docosa-1(20),2(22),3,5,17(21),18-hexaene-11,16-dione]	0.5	2.8 µM	
Cc1cc(C)c2cc1C(=O)NCCCC(=O)N(CCO)CCSc1cc-2nc(N)n1 [Compound 79, 4-amino-10-(2-hydroxyethyl)-18,20-dimethyl-7-thia-3,5,10,15-tetraazatricyclo[15.3.1.1^2,6]docosa-1(20),2(22),3,5,17(21),18-hexaene-11,16-dione]	0.4	3 µM	
Cc1cc(C)c2cc1C(=O)NCCCC(=O)N(CCN1CCOCC1)CCSc1cc-2nc(N)n1 [Compound 81, 4-amino-10-(2-morpholin-4-ylethyl)-18,20-dimethyl-7-thia-3,5,10,15-tetraazatricyclo[15.3.1.1^2,6]docosa-1(20),2(22),3,5,17(21),18-hexaene-11,16-dione]	1.1	3 µM	
Cc1cc(C)c2cc1C1=N[C@@H](CCNC(=O)CCSc3cc-2nc(N)n3)CO1 [Compound 83, (S)-4-amino-19,21-dimethyl-10-oxo-7-thia-16-oxa-3,5,11,24-tetraazatetracyclo[16.3.1.1^2,6.1^7,10]tetracosa-1(22),2(23),3,5,17(24),19,21-heptaen-10-one]	0.4	2.8 µM	

The remaining compounds from weak to strong by IC50 (HCT116 cells), led by results:

IC50 (HCT116 cells) [µM]	IC50 (Human HSP90 alpha; [1])	Structure (SMILES)	IC50 (Human HSP90 alpha; Enzyme-inhibiting activity (IC50, μM) Human HSP90α)
5.7	2.3 µM	CC(=O)NC1CCNC(=O)c2cc(c(C)cc2C)-c2cc(nc(N)n2)SCCNC1=O (stereo not drawn) [Compound 74, N-(4-amino-18,20-dimethyl-10,16-dioxo-7-thia-3,5,10,15-tetraazatricyclo[15.3.1.1^2,6]docosa-1(20),2(22),3,5,17(21),18-hexaen-12-yl)acetamide]	
0.5	2.3 µM	Cc1cc(C)c2cc1C(=O)NCCC(N)C(=O)NCCSc1cc-2nc(N)n1 (stereo not drawn) [Compound 73, 4,12-diamino-18,20-dimethyl-7-thia-3,5,10,15-tetraazatricyclo[15.3.1.1^2,6]docosa-1(20),2(22),3,5,17(21),18-hexaene-11,16-dione]	
0.2	2.5 µM	COCCN1CCSc2cc(nc(N)n2)-c2cc(c(C)cc2C)C(=O)NCCCC1=O [Compound 80, 4-amino-10-(2-methoxyethyl)-18,20-dimethyl-7-thia-3,5,10,15-tetraazatricyclo[15.3.1.1^2,6]docosa-1(20),2(22),3,5,17(21),18-hexaene-11,16-dione]	
0.2	2.5 µM	Cc1cc(C)c2cc1C(=O)NCCCC(=O)N(C)CCSc1cc-2nc(N)n1 [Compound 82, 4-amino-10,18,20-trimethyl-7-thia-3,5,10,15-tetraazatricyclo[15.3.1.1^2,6]docosa-1(20),2(22),3,5,17(21),18-hexaene-11,16-dione]	
